The text below walks through data of patent US12076329B2, “Compositions and methods for enhancing visual function” (The Regents of the University of California, priority 2020, dated 2024).

In one test the target is T1, SNAP-mGluR2 (Rattus norvegicus, UniProt P31421).
T1 construct: expressed in transfected cells; host or cells: HEK293 / HEK 293T, with co-expressed GIRK channel
Briefly: Photoactivation of SNAP-mGluR2 read out as GIRK current, whole cell patch clamp in HEK293 cells. It is filed as cell-based. Conditions: specificity: applied to cells expressing SNAP-mGluR2, n=3 cells. The procedure:
(§1) Whole cell patch clamp recordings from HEK 293T cells were performed 24-48 hours after transfection as previously described (Farrants et al., 2018). Briefly, voltage clamp recordings at −60 mV were performed in a high potassium (120 mM) solution to enable large inward currents upon receptor activation.
(§2) Unless otherwise noted, cells were incubated with 1-10 μM of PORTL for 45-60 min at 37° C. in the appropriate extracellular recording solution. Labeling efficiency was determined as previously described (Levitz et al., 2017). Illumination was applied to the entire field of view using a CoolLED pE-4000 through a 40× objective. Light intensity in the sample plane was 1-2 mW/mm^2. pClamp software was used for both data acquisition and control of illumination. All drugs were purchased from Tocris and applied using a gravity-driven perfusion system.
FIG. 3A-3C. Monovalent BGAG12,460 elicits rat SNAP-mGluR2 and human SNAP-mGluR6 GIRK photo-current in HEK293 cells. FIG. 3A. Group II and III mGluRs, like mGluR2 and 6, respectively, couple to GIRK channels in neurons and this system reconstitutes in non-neuronal cell lines, so that SNAP-mGluR2 or 6 coupled to a BGAG photoswitch will be activated by light and induce hyperpolarizing GIRK current. FIG. 3B. Blue (460 nm) light photo-activates BGAG12,460:SNAP-mGluR2 and elicits an inward K+ current from co-expressed GIRK channel in a HEK293 cell voltage clamped at −60 mV with [K+]in=[K+]out=150 mM. FIG. 3C.
FIG. 4A-4D. Multibranched BGAG12,460 increases potency and sensitivity of SNAP-mGluR2 activation of GIRK channels in HEK293 cells. FIG. 4A. ^4×BGAG12,460 consists of a single BG end for 1:1 attachment to SNAP on each subunit of the mGluR and 4 branches of a 12-PEG linker, with each branch bearing a photoswitchable azobenzene-glutamate (AG). FIG. 4B. […] Dependence of SNAP-mGluR2 photo-activation efficiency, read out as GIRK current, with single, 2-branch and 4-branch BGAG12,460. […]
Background: Patch clamp records ionic current or voltage across a cell membrane.

In another test the target is T2, CLIP-mGluR2 (Rattus norvegicus, UniProt P31421).
T2 construct: expressed in transfected cells; host or cells: HEK 293T
Briefly: Photoactivation of CLIP-mGluR2, whole cell patch clamp in HEK 293T cells. Format: cell-based. The method, then:
as §1, §2

A further test relates to GFP-tagged mGluR2. Description: Nanobody-photoswitch conjugate (NPC)-mediated photoswitching of GFP-tagged mGluR2. Conditions: SNAP-tagged anti-GFP nanobody labeled with PORTL. Format: cell-based. The source says:
Finally, a long-term goal of tethered photopharmacology is to incorporate the optical control afforded by such compounds into antibody-mediated targeting of proteins. “Nanobody-photoswitch conjugates” (NPCs) consisting of a SNAP-tagged nanobody labeled with a PORTL have been reported. NPCs containing an anti-GFP nanobody are able to photoactivate GFP-tagged mGluR2, but with limited efficiency (Farrants et al., 2018).

Another test deals with T3, Halo-mGluR2 (Rattus norvegicus, UniProt P31421).
T3 construct: expressed in transfected cells; host or cells: HEK 293T
Briefly: Photoactivation and labeling of Halo-mGluR2, whole cell patch clamp in HEK 293T cells. Format: cell-based. The method, then: as §1, §2
With the goal of further expanding the repertoire of PORTLs to a third self-labelling, orthogonal suicide enzyme, the Halo-tag, which reacts specifically with alkyl chlorides (Los et al., 2008), was used. […] Based on the hypothesis that branching Halo-targeting PORTLs would enhance photoswitching, “doubleClAG12” (^2×ClAG12) (Scheme S8 (FIG. 1H); FIG. 2E) was synthesized. […]

The test system of test [1] is RGCs from isolated rd1 retina. Description: MEA recordings of RGCs from isolated rd1 retina. Format: cell-based, mouse. Particulars: 1 s light flashes. The source says:
FIG. 10A-10C. MEA recordings of RGCs from isolated rd1 retina with either BGAG12,460:SNAP-mGluR2 or medium wave cone opsin in RGCs. A) Superimposed average responses to 1 s light flashes in dozens of RGCs in 3 representative retinas isolated from: wildtype mice (Wt; red), rd1 mice expressing medium wave (MW) cone opsin in RGCs (black), and rd1 mice expressing SNAP-mGluR2 in RGCs (blue) following intravitreal injection of BGAG12,460. […] B) Blue light activation of BGAG12,460:SNAP-mGluR2 evokes an immediate inhibition with a sustained amplitude during illumination, followed by a transient excitatory rebound after termination of illumination. […] As light pulses are shortened, the delay to peak response increases and deactivation slows, (from (Berry et al. (2019) supra).

The subject of test [2] is rd1 animals expressing medium wave cone opsin in RGCs. Particulars: Berry et al. (2019); cited from earlier work.
For test [3] the test system is unchanged. Briefly: Line pattern recognition in moving displays, medium wave cone opsin in RGCs. It is filed as in vivo, mouse. Conditions: expressed in RGCs of rd1 animals. The source says:
The kinetics of onset, decay and recovery of the restored light response are expected to affect the ability to recognize a visual pattern. […] Thus, the speed limit of ^4×BGAG12,460:SNAP-mGluR2 in RGCs is ≥8 cm/s, whereas that of medium wave cone opsin in RGCs is ≤4 cm/s.

“Also recorded” adds a separate entry of the source.

T2 sequence (P31421 with tags, fused parts or gaps): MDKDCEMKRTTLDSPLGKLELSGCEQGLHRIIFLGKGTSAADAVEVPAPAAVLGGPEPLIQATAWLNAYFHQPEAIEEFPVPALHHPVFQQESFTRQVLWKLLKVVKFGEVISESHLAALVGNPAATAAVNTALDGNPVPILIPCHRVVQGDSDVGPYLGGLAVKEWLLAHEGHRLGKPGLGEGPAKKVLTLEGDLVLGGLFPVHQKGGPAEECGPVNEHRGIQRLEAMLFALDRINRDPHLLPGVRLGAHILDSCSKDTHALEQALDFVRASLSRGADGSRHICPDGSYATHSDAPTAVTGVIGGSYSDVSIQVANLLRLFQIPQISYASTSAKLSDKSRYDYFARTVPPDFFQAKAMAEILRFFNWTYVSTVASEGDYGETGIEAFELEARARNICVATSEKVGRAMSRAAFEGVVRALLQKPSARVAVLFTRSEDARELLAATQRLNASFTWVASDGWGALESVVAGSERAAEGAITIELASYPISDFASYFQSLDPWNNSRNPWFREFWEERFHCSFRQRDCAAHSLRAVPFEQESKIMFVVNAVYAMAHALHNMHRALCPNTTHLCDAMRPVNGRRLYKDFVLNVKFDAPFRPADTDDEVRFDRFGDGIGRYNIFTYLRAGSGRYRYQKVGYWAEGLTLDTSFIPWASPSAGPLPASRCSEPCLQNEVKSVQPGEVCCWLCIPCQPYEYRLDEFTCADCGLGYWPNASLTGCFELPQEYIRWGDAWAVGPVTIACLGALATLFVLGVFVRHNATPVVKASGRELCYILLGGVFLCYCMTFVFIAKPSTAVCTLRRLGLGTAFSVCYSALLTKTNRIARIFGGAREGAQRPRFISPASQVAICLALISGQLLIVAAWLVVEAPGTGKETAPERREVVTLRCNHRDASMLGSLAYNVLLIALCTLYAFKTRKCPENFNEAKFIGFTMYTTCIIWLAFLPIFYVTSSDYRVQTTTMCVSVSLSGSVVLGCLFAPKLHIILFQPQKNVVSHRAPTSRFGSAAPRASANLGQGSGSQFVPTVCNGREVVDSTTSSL
T1 sequence (P31421 with tags, fused parts or gaps): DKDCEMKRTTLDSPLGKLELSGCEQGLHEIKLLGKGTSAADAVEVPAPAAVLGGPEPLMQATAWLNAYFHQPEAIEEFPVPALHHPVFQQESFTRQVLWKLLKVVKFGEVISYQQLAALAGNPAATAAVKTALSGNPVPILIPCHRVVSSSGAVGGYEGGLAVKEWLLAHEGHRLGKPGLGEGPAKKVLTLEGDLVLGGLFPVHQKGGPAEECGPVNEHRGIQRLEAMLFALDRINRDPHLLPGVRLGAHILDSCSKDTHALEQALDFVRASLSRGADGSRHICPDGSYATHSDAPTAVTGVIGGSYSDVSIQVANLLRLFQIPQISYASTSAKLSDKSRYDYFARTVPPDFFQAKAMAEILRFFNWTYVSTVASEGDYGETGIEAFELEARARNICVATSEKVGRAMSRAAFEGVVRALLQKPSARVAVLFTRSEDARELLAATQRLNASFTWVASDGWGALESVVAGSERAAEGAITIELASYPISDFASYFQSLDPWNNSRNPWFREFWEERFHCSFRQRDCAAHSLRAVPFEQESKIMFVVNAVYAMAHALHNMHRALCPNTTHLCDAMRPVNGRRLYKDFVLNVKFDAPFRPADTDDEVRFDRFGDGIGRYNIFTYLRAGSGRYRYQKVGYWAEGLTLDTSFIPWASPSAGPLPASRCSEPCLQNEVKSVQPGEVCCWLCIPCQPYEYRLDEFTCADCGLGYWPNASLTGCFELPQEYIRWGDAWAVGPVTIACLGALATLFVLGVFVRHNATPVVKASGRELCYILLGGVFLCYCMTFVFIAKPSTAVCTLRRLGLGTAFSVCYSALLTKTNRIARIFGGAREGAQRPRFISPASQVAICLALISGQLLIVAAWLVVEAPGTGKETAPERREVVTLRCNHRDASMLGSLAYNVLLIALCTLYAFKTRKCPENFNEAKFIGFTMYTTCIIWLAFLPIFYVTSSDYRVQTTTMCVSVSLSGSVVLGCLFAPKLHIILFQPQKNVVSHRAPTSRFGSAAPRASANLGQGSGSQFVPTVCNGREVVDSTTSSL
T3 sequence (P31421 with tags, fused parts or gaps): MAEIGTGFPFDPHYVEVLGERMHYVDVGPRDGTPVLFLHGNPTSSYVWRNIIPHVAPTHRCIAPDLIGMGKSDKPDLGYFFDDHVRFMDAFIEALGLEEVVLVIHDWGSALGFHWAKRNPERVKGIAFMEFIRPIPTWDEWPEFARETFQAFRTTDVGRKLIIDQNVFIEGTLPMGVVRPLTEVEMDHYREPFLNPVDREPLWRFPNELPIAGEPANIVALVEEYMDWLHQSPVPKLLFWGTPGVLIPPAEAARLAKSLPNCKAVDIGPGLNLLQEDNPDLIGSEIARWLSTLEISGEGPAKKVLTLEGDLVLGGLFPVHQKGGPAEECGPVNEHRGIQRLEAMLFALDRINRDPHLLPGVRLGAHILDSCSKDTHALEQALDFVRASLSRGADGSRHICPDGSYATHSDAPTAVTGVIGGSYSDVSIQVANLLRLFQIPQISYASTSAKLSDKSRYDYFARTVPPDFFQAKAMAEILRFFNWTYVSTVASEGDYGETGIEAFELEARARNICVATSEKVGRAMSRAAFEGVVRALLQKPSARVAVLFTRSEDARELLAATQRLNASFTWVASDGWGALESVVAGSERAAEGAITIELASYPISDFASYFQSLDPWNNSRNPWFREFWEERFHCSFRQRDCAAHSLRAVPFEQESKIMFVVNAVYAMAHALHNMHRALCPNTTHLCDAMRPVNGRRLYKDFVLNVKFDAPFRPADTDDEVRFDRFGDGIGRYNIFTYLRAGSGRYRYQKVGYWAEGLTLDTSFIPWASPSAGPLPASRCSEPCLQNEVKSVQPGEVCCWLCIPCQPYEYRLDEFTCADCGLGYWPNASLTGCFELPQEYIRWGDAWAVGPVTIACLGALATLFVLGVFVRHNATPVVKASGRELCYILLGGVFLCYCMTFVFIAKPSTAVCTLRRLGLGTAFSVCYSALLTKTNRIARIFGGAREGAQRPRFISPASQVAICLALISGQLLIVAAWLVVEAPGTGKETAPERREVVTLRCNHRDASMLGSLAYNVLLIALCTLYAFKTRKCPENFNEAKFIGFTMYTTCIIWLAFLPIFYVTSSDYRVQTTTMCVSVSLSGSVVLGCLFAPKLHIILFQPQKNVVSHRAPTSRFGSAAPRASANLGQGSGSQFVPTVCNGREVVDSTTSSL

On to `Nc1ccnc(OCc2ccc(CNC(=O)CCC(=O)N3Cc4ccccc4-c4nnn(CCOCCOCCOCCOCCOCCOCCOCCOCCOCCOCCOCCOCCC(=O)N[C@H](CCC(=O)NCC(=O)Nc5ccc(/N=N/c6ccc(NC(=O)CCC[C@@H](C[C@H](N)C(=O)O)C(=O)O)cc6)cc5)C(=O)NCC(=O)Nc5ccc(/N=N/c6ccc(NC(=O)CCC[C@@H](C[C@H](N)C(=O)O)C(=O)O)cc6)cc5)c4-c4ccccc43)cc2)n1` [^2×BCAG12], for which the “photocurrent relative to 1 mM glutamate” value at SNAP-mGluR2 is given as 2.8±0.3%. Besides, at CLIP-mGluR2, the “optical control / efficiency of photoactivation of CLIP-mGluR2” value is on record as “near-complete optical control; also recorded: enhances efficiency of CLIP-mGluR2 photoactivation compared to BCAG12”.
For the molecule `Nc1nc(OCc2ccc(CNC(=O)CCCC(=O)NCCOCCOCCOCCOCCOCCOCCOCCOCCOCCOCCOCCOCCC(=O)N[C@H](CCC(=O)NCC(=O)Nc3ccc(/N=N/c4ccc(NC(=O)CCC[C@@H](C[C@H](N)C(=O)O)C(=O)O)cc4)cc3)C(=O)NCC(=O)Nc3ccc(/N=N/c4ccc(NC(=O)CCC[C@@H](C[C@H](N)C(=O)O)C(=O)O)cc4)cc3)cc2)c2nc[nH]c2n1` [^2×BGAG12], the “photoswitch efficiency of NPC-mediated photoswitching of mGluR2” value in the test on GFP-tagged mGluR2 is “doubled the photoswitch efficiency”.
On to `N[C@@H](C[C@H](CCCC(=O)Nc1ccc(/N=N/c2ccc(NC(=O)CNC(=O)CCOCCOCCOCCOCCOCCOCCOCCOCCOCCOCCOCCOCCNC(=O)CCCC(=O)NCCOCCOCCCCCCCl)cc2)cc1)C(=O)O)C(=O)O` [ClAG12, (2S,4S)-2-Amino-4-(4-((4-((E)-(4-(61-chloro-4,44,48-trioxo-7,10,13,16,19,22,25,28,31,34,37,40,52,55-tetradecaoxa-3,43,49-triazahenhexacontanamido)phenyl)diazenyl)phenyl)amino)-4-oxobutyl)pentanedioic acid], for which the “photoactivation of Halo-mGluR2” value on Halo-mGluR2 is “showed photoactivation of mGluR2”.

B1: medium wave cone opsin: medium wave (MW) cone opsin expressed in RGCs of rd1 mice, comparator light-activated GPCR (protein, UniProt O35599 1-359, looked up)
Medium-wave-sensitive opsin 1: MAQRLTGEQTLDHYEDSTHASIFTYTNSNSTKGPFEGPNYHIAPRWVYHLTSTWMILVVVASVFTNGLVLAATMRFKKLRHPLNWILVNLAVADLAETIIASTISVVNQIYGYFVLGHPLCVIEGYIVSLCGITGLWSLAIISWERWLVVCKPFGNVRFDAKLATVGIVFSWVWAAIWTAPPIFGWSRYWPYGLKTSCGPDVFSGTSYPGVQSYMMVLMVTCCIFPLSIIVLCYLQVWLAIRAVAKQQKESESTQKAEKEVTRMVVVMVFAYCLCWGPYTFFACFATAHPGYAFHPLVASLPSYFAKSATIYNPIIYVFMNRQFRNCILHLFGKKVDDSSELSSTSKTEVSSVSSVSPA
For B1, in test [1], the “latency of RGC response to light onset” value is listed as “delayed response”. In test [2], the “line pattern recognition when the displays move at 1 cm/s” value was “perform well”. In test [3], the “line pattern recognition when the display moved at 4 cm/s” value is given as “performed at the level of the untreated rd1 animals” and the “speed limit of line pattern recognition in moving displays” value was not above 4 cm/s.
